We go through three compounds from the NIST ThermoML archive (doi:10.1016/j.fluid.2005.03.027).

± gives the expanded uncertainty stated by the source.

The conditions of the data set: Crystal; visual observation.
Regarding `Oc1ccccc1` [phenol], the Normal melting temperature worked out at 41.70 ± 0.39 °C.

For the compound `Cc1cc(C)cc(O)c1` [3,5-dimethylphenol], the Normal melting temperature turned out to be 63.77 ± 0.39 °C.

In the case of `CN1CCCC1=O` [N-methylpyrrolidone], the Normal melting temperature was -23.47 ± 0.39 °C.
